Patent publication US12350270B2, “Antimalarial agents” (Merck Sharp & Dohme LLC, priority 2019, dated 2025)

Tested on: parasites (ring stage, in human red blood cell culture)
Assay: Parasite LDH growth assay (antiparasite potency, Parasite Assay)
Type: cell-based, Plasmodium falciparum
Conditions: Plasmodium falciparum, Erythrocyte, 72 h, 0.7% rings, 2% haematocrit, 72 hours at 37° C., LDH readout of parasite growth
How it was run: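 Growth was read by an LDH assay after a freeze–thaw cycle (−80 °C overnight, 4 h thaw at RT). Before that, parasites grew with compound for 72 h at 37 °C under gassed, humidified conditions. The input was a ring-stage culture adjusted to 0.7% parasitemia and 2% haematocrit in serum (5%)/albumax (0.5%)-supplemented RPMI-Hepes.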

SMILES	EC50 [nM]
COC1COc2ccc(C(=O)N[C@@H]3c4ccccc4OC[C@]3(C)O)cc2C1N1C(=N)NC(C)(C)CC1=O (stereo partly drawn) [Example 185, N-[(3R,4R)-3-hydroxy-3-methyl-chroman-4-yl]-4-(2-imino-4,4-dimethyl-6-oxo-hexahydropyrimidin-1-yl)-3-methoxy-chromane-6-carboxamide]	50.3
COC1COc2ccc(C(=O)N[C@@H]3c4ccccc4OC[C@@]3(C)O)cc2C1N1C(=N)NC(C)(C)CC1=O (stereo partly drawn) [Example 186, N-[(3S,4R)-3-hydroxy-3-methyl-chroman-4-yl]-4-(2-imino-4,4-dimethyl-6-oxo-hexahydropyrimidin-1-yl)-3-methoxy-chromane-6-carboxamide]	70
CC1(C)CC(=O)N(C2CCS(=O)(=O)c3ccc(C(=O)N[C@@H]4c5ccccc5C[C@]4(C)O)cc32)C(=N)N1 (stereo partly drawn) [Example 187, N-[(1R,2S)-2-hydroxy-2-methyl-indan-1-yl]-4-(2-imino-4,4-dimethyl-6-oxo-hexahydropyrimidin-1-yl)-1,1-dioxo-3,4-dihydro-2H-thiochromane-6-carboxamide]	66.7
CC1(C)CC(=O)N(C2CCS(=O)(=O)c3ccc(C(=O)N[C@@H]4c5ccccc5C[C@@]4(C)O)cc32)C(=N)N1 (stereo partly drawn) [Example 188, N-[(1R,2R)-2-hydroxy-2-methyl-indan-1-yl]-4-(2-imino-4,4-dimethyl-6-oxo-hexahydropyrimidin-1-yl)-1,1-dioxo-3,4-dihydro-2H-thiochromene-6-carboxamide]	203
CC1(C)CC(=O)N([C@@H]2CCOc3ccc(C(=O)N[C@@H]4c5cc(F)ccc5OC(C)(C)[C@H]4O)cc32)C(=N)N1 [Example 189, (4R)-N-[(3S,4R)-6-fluoro-3-hydroxy-2,2-dimethyl-chroman-4-yl]-4-(2-imino-4,4-dimethyl-6-oxo-hexahydropyrimidin-1-yl)chromane-6-carboxamide]	1
CCC1(CC)CC(=O)N([C@@H]2CCOc3ccc(C(=O)N[C@@H]4c5cc(F)ccc5OC[C@H]4O)cc32)C(=N)N1 [Example 191, (4R)-4-(4,4-diethyl-2-imino-6-oxo-hexahydropyrimidin-1-yl)-N-[(3S,4R)-6-fluoro-3-hydroxy-chroman-4-yl]chromane-6-carboxamide]	2.6
CCC1(CC)CC(=O)N([C@@H]2CCOc3ccc(C(=O)N[C@H]4c5cc(F)ccc5OC[C@@H]4O)cc32)C(=N)N1 [Example 192, (4R)-4-(4,4-diethyl-2-imino-6-oxo-hexahydropyrimidin-1-yl)-N-[(3R,4S)-6-fluoro-3-hydroxy-chroman-4-yl]chromane-6-carboxamide]	232
CCC1(CC)CC(=O)N([C@@H]2CCOc3ccc(C(=O)NC(c4ccccc4)c4ccccc4)cc32)C(=N)N1 [Example 194, (4R)-N-benzhydryl-4-(4,4-diethyl-2-imino-6-oxo-hexahydropyrimidin-1-yl)chromane-6-carboxamide]	0.9
CC1(C)CC(=O)N([C@@H]2CCOc3ccc(C(=O)N[C@@H]4c5cc(Cl)ccc5OC[C@@]4(C)O)cc32)C(=N)N1 [Example 195, (4R)-N-[(3S,4R)-6-chloro-3-hydroxy-3-methyl-chroman-4-yl]-4-(2-imino-4,4-dimethyl-6-oxo-hexahydropyrimidin-1-y)chromane-6-carboxamide]	3.5
CC[C@]1(C)CC(=O)N([C@@H]2CCOc3ccc(C(=O)N[C@@H]4c5cc(Cl)ccc5OC[C@H]4O)cc32)C(=N)N1 [Example 196, (4R)-N-[(3S,4R)-6-chloro-3-hydroxy-chroman-4-yl]-4-[(4R)-4-ethyl-2-imino-4-methyl-6-oxo-hexahydropyrimidin-1-yl]chromane-6-carboxamide]	8.6
CCC1(CC)CC(=O)N([C@@H]2CCOc3ccc(C(=O)N[C@H]4c5ccccc5C(F)(F)[C@@H]4O)cc32)C(=N)N1 [Example 197, (4R)-4-(4,4-diethyl-2-imino-6-oxo-hexahydropyrimidin-1-yl)-N-[(1S,2R)-3,3-difluoro-2-hydroxy-indan-1-yl]chromane-6-carboxamide]	125
CCC1(CC)CC(=O)N([C@@H]2CCOc3ccc(C(=O)N[C@@H]4c5ccccc5C(F)(F)[C@H]4O)cc32)C(=N)N1 [Example 198, (4R)-4-(4,4-diethyl-2-imino-6-oxo-hexahydropyrimidin-1-yl)-N-[(1R,2S)-3,3-difluoro-2-hydroxy-indan-1-yl]chromane-6-carboxamide]	11.3
CC1(C)CC(=O)N([C@@H]2CC(F)(F)c3ccc(C(=O)N[C@@H]4c5ccccc5OC(C)(C)[C@H]4O)cc32)C(=N)N1 [Example 199, (3R)-1,1-difluoro-N-[(3S,4R)-3-hydroxy-2,2-dimethyl-chroman-4-yl]-3-(2-imino-4,4-dimethyl-6-oxo-hexahydropyrimidin-1-yl)indane-5-carboxamide]	1.1
CCC1(CC)CC(=O)N([C@@H]2CCOc3ccc(C(=O)NC(c4ccccc4)C4CCCCC4)cc32)C(=N)N1 (stereo partly drawn) [Example 200, (4R)-N-[cyclohexyl(phenyl)methyl]-4-(4,4-diethyl-2-imino-6-oxo-hexahydropyrimidin-1-yl)chromane-6-carboxamide]	2.9
CCC1(CC)CC(=O)N([C@@H]2CCCc3ccc(C(=O)N[C@@H]4c5ccccc5OC(C)(C)[C@H]4O)cc32)C(=N)N1 [Example 201, (4R)-4-(4,4-diethyl-2-imino-6-oxo-hexahydropyrimidin-1-yl)-N-[(3S,4R)-3-hydroxy-2,2-dimethyl-chroman-4-yl]tetralin-6-carboxamide]	1.4
CC[C@]1(C)CC(=O)N([C@H]2c3cc(C(=O)N[C@@H]4c5ccccc5C[C@@]4(C)O)ccc3OC[C@@H]2COC)C(=N)N1 [Example 202, (3S,4R)-4-[(4R)-4-ethyl-2-imino-4-methyl-6-oxo-hexahydropyrimidin-1-yl]-N-[(1R,2R)-2-hydroxy-2-methyl-indan-1-yl]-3-(methoxymethyl)chromane-6-carboxamide]	0.8
CCC1(CC)CC(=O)N([C@H]2C[C@@H](OC)c3ccc(C(=O)N[C@@H]4c5ccccc5OC[C@@]4(C)O)cc32)C(=N)N1 [Example 204, (1R,3S)-3-(4,4-diethyl-2-imino-6-oxo-hexahydropyrimidin-1-yl)-N-[(3S,4R)-3-hydroxy-3-methyl-chroman-4-yl]-1-methoxy-indane-5-carboxamide]	247
CCC1(CC)CC(=O)N([C@@H]2C[C@H](OC)c3ccc(C(=O)N[C@@H]4c5ccccc5OC[C@@]4(C)O)cc32)C(=N)N1 [Example 205, (1S,3R)-3-(4,4-diethyl-2-imino-6-oxo-hexahydropyrimidin-1-yl)-N-[(3S,4R)-3-hydroxy-3-methyl-chroman-4-yl]-1-methoxy-indane-5-carboxamide]	2.1
COCC1(C)CC(N2C(=N)NC(C)(C)CC2=O)c2cc(C(=O)N[C@@H]3c4ccccc4C[C@]3(C)O)ccc2O1 (stereo partly drawn) [Example 206, N-[(1R,2S)-2-hydroxy-2-methyl-indan-1-yl]-4-(2-imino-4,4-dimethyl-6-oxo-hexahydropyrimidin-1-yl)-2-(methoxymethyl)-2-methyl-chromane-6-carboxamide]	66
CCC1(CC)CC(=O)N(C2c3cc(C(=O)N[C@H]4CC(C)(C)Oc5ccccc54)ccc3OCC2O)C(=N)N1 (stereo partly drawn) [Example 207, 4-(4,4-diethyl-2-imino-6-oxo-hexahydropyrimidin-1-yl)-N-[(4S)-2,2-dimethylchroman-4-yl]-3-hydroxy-chromane-6-carboxamide]	22
